Measured values published in PMC7436000, “The Spectrum of Design Solutions for Improving the Activity-Selectivity Product of Peptide Antibiotics against Multidrug-Resistant Bacteria and Prostate Cancer PC-3 Cells” (Molecules, 2020).
In brackets after ≈: the same amount, converted by molar mass. Peptide text beside a SMILES is read from it.

How the values were obtained:
[1] = tested on: human erythrocytes; details: cited from earlier work
Source text: The cell-penetrating ability is inherent to some amphipathic peptides with a high percentage of cationic residues. More than five arginines are required to direct membrane penetration through the eukaryotic membrane. This condition is fulfilled by guananin 2, the PenArg analog of penetratin, and T2R1, but not by T2. Penetratin, with the sequence […], is a well-known cell-penetrating peptide, which is furthermore an antimicrobial and anticancer peptide. That peptide is, to some degree, toxic to HeLa and Jurkat cancer cell lines. The toxicity to HeLa ...

[2] = tested on: Gram-negative and Gram-positive bacteria; details: cited from earlier work
Source text: (§1) In the ZYK1 example, the parent peptide already has selective antimicrobial and antitumor activity. […] It follows that the TI for the paren ...

[3] = tested on: HeLa (human cervical carcinoma cells) and HL60 (human promyelocytic leukemia cells); details: two selected cancer cell lines; read-out: IC50 against HeLa and HL60; cited from earlier work
Source text: as §1

[4] = tested on: human neonate chondrocytes; details: cited from earlier work
Source text: as §1

[5] = cited from earlier work
Source text: The MAPA analog of the MAP cell-penetrating peptide is five times less hemolytic and has at least two times stronger antibacterial activity than MAP [73] (Table 2). Accordingly, by introduced substitutions, we increased the selectivity index by at least one order of magnitude, and converted a strongly hemolytic, predominantly cell-penetrating peptide with no antibacterial selectivity (SI = 1, [73]), into a potent peptide antibiotic. MAP is an important molecule for engineering new anticancer agents, but as far as we can tell, MAPA is the first known selective anticancer MAP an ...

[6] = tested on: Staphylococcus aureus (ATCC 29213); type: cell-based
Source text: (§2) The American Type Culture Collection (ATCC, Rockville, MD, USA) strains and Escherichia coli MG1655 were used as standard bacterial strains. Gram-negative ATCC strains consisted of Escherichia coli (ATCC 25922), Pseudomonas aeruginosa (ATCC 27853), Acinetobacter baumannii (ATCC 19606), and Klebsiella pneumoniae (ATCC 13883). The only Gram-positive standard strain chosen for testing was Staphylococcus aureus (ATCC 29213). Clinical isolates with confirmed multidrug-resistance phenotype were obtained from different wards of the University Hospital Center, Split, Croatia. We described their origin, antibiograms, and resistance phenotype previously. In the same paper, we described the procedure for antimicrobial susceptibility testing on planktonic cells, using the microdilution method in 96-well microtiter plates.
(§3) Briefly, cells were grown on agar plates and a single colony was sampled to generate a liquid culture (LC) grown overnight at 37 °C. The culture was sampled, resuspended in fresh medium, and allowed to grow at 37 °C, until reaching the mid-exponential phase. Lysogeny broth (LB) was used in the case of the E. coli MG1655 cells. Mueller Hinton (MH) medium was used for all other bacterial strains. Serial 2-fold dilutions of the peptide (64 μM to 0.0625 μM) were prepared from peptide stock solution in PBS, and added to a final load of 5 × 10^5 CFU/mL in 100 μL total volume of medium per well in a 96-well plate (Brand 781660). Bacterial cultures were incubated with peptides for 18 h to 24 h at 37 °C. The minimum inhibitory concentration (MIC) was defined as the lowest concentration of the peptide, at which no visible bacterial growth was observed. The MIC for each of the tested peptides was determined in at least three individual assays under the same laboratory conditions. […] At the end of the incubation period for MIC or MBC, the determination of the OD600 was analyzed.

[7] = tested on: Klebsiella pneumoniae (ATCC 13883); type: cell-based; details: ATCC 13883
Source text: as §2, §3

[8] = tested on: Escherichia coli (ATCC 25922); type: cell-based; details: ATCC 25922
Source text: as §2, §3

[9] = tested on: Acinetobacter baumannii (ATCC 19606); type: cell-based; details: ATCC 19606
Source text: as §2, §3

[10] = tested on: Escherichia coli MG1655; type: cell-based; details: MG1655
Source text: as §2, §3

[11] = tested on: Pseudomonas aeruginosa (ATCC 27853); type: cell-based; details: ATCC 27853
Source text: as §2, §3

[12] = tested on: E. coli clin. isolate; type: cell-based, Escherichia coli; details: clin. isolate
Source text: as §2, §3

[13] = tested on: A. baum. clin. isolate; type: cell-based, Acinetobacter baumannii
Source text: as §2, §3

[14] = tested on: PC-3 prostate cancer cell line; type: cell-based, human; details: 24 h
Experimental: (§4) Prostate cancer cells were donated by the University of Split, School of Medicine. Cells were cultured in RMPI-1640 medium, supplemented with 10% FBS, 1% Penicillin-Streptomycin, and 1% L-Glutamine. Human dermal fibroblasts were purchased from Biopredic (France) and cultured in DMEM medium, supplemented with 10% FBS and 1% Penicillin-Streptomycin. All cell lines were maintained in a humidified incubator with 5% CO2 at 37 °C. Cells were detached using the trypsin-EDTA solution and sub-cultured (7000 cells/well) in a 96-well plate overnight. Peptide stock solutions were prepared in PBS, and cancer cells were treated with 2-fold serial dilutions for 24 h at 37 °C, with 5% CO2. The toxicity of 6 selected peptides was assessed by a standard MTT assay. Treated cells were incubated with MTT working solution (0.5 mg/mL Thiazolyl Blue Tetrazolium Bromide) for 4 h at 37 °C with 5% CO2. Precipitated formazan was dissolved in 200 µL DMSO and absorbance was measured at 595 nm with EnSight Multimode Plate Reader (PerkinElmer, Inc.)

[15] = tested on: human primary dermal fibroblasts; type: cell-based; details: 24 h
Experimental: as §4

[16] = tested on: K. pneum. clin. isolate; type: cell-based, Klebsiella pneumoniae
Source text: as §2, §3

[17] = tested on: human erythrocytes; experiment: Hemolysis of human erythrocytes; type: cell-based; details: for HC10 / HC20: 1 h
Experimental: Fresh blood was obtained from a healthy donor. Blood was stored in a tube containing EDTA at 4 °C and used within 24 h. Before use, 1 mL of blood was centrifuged (400× g, 10 min), and the supernatant was discarded. Moreover, 500 μL cold PBS with EDTA (1 mM) was added, mixed and centrifuged. The supernatant was discarded. Furthermore, 500 μL of cold PBS with EDTA (1 mM) was added, from which a dilution of 1% blood was made. Peptides were prepared in PBS at a 2 × concentration in 100 µL. […] The suspension was incubated at 37 °C for 1 h and centrifuged at 10,000× g for 5 min. […] After centrifugation, the supernatant was added to a 96-well microtiter plate (150–180 μL), and the absorbance was measured at 450 nm, using EnSight Multimode Plate Reader (PerkinElmer, Inc.). Each measurement was done in triplicate. […] We opted to also include the extrapolated HC50 in our results, to permit comparisons with older toxicity results. However, the HC20 measurements were used for ranking the peptides according to their selectivity and overall performance (Figure 1 and Figure 2 and Table 2).

[18] = tested on: S. aureus clin. isolate; type: cell-based, Staphylococcus aureus; details: clin. isolate
Source text: as §2, §3

[19] = tested on: P. aerug. clin. isolate; type: cell-based, Pseudomonas aeruginosa
Source text: as §2, §3

[20] = tested on: human erythrocytes; experiment: Hemolysis of human erythrocytes; type: cell-based; details: 24 h
[21] = tested on: standard ATCC S. aureus; details: cited from earlier work
[22] = tested on: lymphoma cell line U937; set-up: method as in PMID 21403917; details: read-out: IC50 against lymphoma cell line U937; cited from earlier work
[23] = cited from earlier work; remark: listed apart in the source
[24] = tested on: standard ATCC E. coli; details: cited from earlier work

Molecule: RQYMRQIEQALRYGYRISRR [guananin 2, arginine-rich designed peptide from the literature]
- selectivity index [1]: about 24

Molecule: GIIKKIIKKIIKKI-NH2 [already known artificial AMP template of ZYK1]
- MIC values [2]: about 10 μM
- IC50 [3]: 15 to 25 µM
- IC50 [4]: > 40 µM

Molecule: KLALKLALKALKAALKLA [MAP, cell-penetrating peptide, template of mapegin]
- antibacterial selectivity SI [5]: 1

Molecule: CC[C@H](C)[C@H](NC(=O)CN)C(=O)NCC(=O)N[C@@H](CCCCN)C(=O)N[C@@H](Cc1ccccc1)C(=O)N[C@@H](CC(C)C)C(=O)N[C@@H](CCCCN)C(=O)N[C@@H](CCCCN)C(=O)N[C@@H](C)C(=O)N[C@@H](CCCCN)C(=O)N[C@@H](CCCCN)C(=O)N[C@@H](Cc1ccccc1)C(=O)NCC(=O)N[C@@H](CCCCN)C(=O)N[C@@H](C)C(=O)N[C@@H](Cc1ccccc1)C(=O)N[C@H](C(=O)N[C@@H](CC(C)C)C(=O)N[C@H](C(=O)N[C@@H](CC(C)C)C(=O)N[C@@H](CCCCN)C(=O)N[C@@H](CCCCN)C(N)=O)[C@@H](C)CC)C(C)C [PEXA] (H-GIGKFLKKAKKFGKAFVLILKK-NH2)
- MIC (S. aureus ATCC 29213) [6]: 0.5 µM (≈ 1.23 µg/mL)
- MIC (K. pneum. ATCC 13883) [7]: 2 µM (≈ 4.92 µg/mL)
- MIC (E. coli ATCC 25922) [8]: 0.5 to 1 µM
- MIC (A. baum. ATCC 19606) [9]: 1 to 2 µM
- MIC (E. coli MG1655) [10]: 4 µM (≈ 9.85 µg/mL)
- MIC (P. aerug. ATCC 27853) [11]: 4 µM (≈ 9.85 µg/mL)
- MIC (E. coli clin. isolate) [12]: 4 µM (≈ 9.85 µg/mL)
- MIC (A. baum. clin. isolate) [13]: 1 to 2 µM
- (TI/ IC50C) vs. MP1 [14]: 18
- IC50 [14]: 4 µM
- TI (HC20/IC20C) [14]: 6.7
- TI (IC50F/IC50C) [14]: 3
- TI/ IC50C [14]: 0.75
- IC50 [15]: 12 µM
- MIC (K. pneum. clin. isolate) [16]: 4 µM (≈ 9.85 µg/mL)
- HC10 [17]: 1.6 µM
- HC20 [17]: 7 µM
- MIC (S. aureus clin. isolate) [18]: 2 µM (≈ 4.92 µg/mL)
- MIC (P. aerug. clin. isolate) [19]: 16 µM (≈ 39.4 µg/mL)
- HC50 * (extrapolated) [20]: 520 * µM

Molecule: GIGKFLKKAKKFGKAFVKILKK [pexiganan, well-known broad-spectrum peptide antibiotic]
- MIC, standard ATCC S. aureus [21]: 6.5 µM
- IC50 [22]: 4 µM
- HC50 hemolytic activity [23]: 45 µM
- MIC, standard ATCC E. coli [24]: 6.5 µM

Molecule: CC[C@H](C)[C@H](NC(=O)[C@H](CCCNC(=N)N)NC(=O)[C@H](C)NC(=O)[C@H](Cc1ccc(O)cc1)NC(=O)[C@H](CCCNC(=N)N)NC(=O)[C@H](CCCNC(=N)N)NC(=O)[C@H](Cc1c[nH]c2ccccc12)NC(=O)[C@H](Cc1c[nH]cn1)NC(=O)[C@H](Cc1c[nH]cn1)NC(=O)[C@@H](N)CCCNC(=N)N)C(=O)NCC(=O)N[C@@H](Cc1ccccc1)C(=O)N[C@@H](CCCNC(=N)N)C(=O)N[C@@H](C)C(=O)N[C@H](C(=O)N[C@@H](CCCNC(=N)N)C(=O)N[C@H](C(=O)N[C@H](C(=O)N[C@H](C(=O)NCC(=O)N[C@@H](CCCCN)C(N)=O)[C@@H](C)CC)C(C)C)[C@@H](C)O)C(C)C [T2R1] (H-RHHWRRYARIGFRAVRTVIGK-NH2)
- MIC (S. aureus ATCC 29213) [6]: 0.5 µM (≈ 1.32 µg/mL)
- PEa(20) = SI/MIC(aureus) ([6]; ATCC 29213, 18 h): 100 µM⁻¹
- MIC (K. pneum. ATCC 13883) [7]: 2 µM (≈ 5.27 µg/mL)
- MIC (E. coli ATCC 25922) [8]: 1 µM (≈ 2.64 µg/mL)
- MIC (A. baum. ATCC 19606) [9]: 2 µM (≈ 5.27 µg/mL)
- MIC (E. coli MG1655) [10]: 4 µM (≈ 10.5 µg/mL)
- MIC (P. aerug. ATCC 27853) [11]: 1 µM (≈ 2.64 µg/mL)
- MIC (E. coli clin. isolate) [12]: 4 µM (≈ 10.5 µg/mL)
- MIC (A. baum. clin. isolate) [13]: 8 µM (≈ 21.1 µg/mL)
- (TI/ IC50C) vs. MP1 [14]: 30
- IC50 [14]: 8 µM
- TI (HC20/IC20C) [14]: 5
- TI (IC50F/IC50C) [14]: 10
- TI/ IC50C [14]: 1.25
- IC50 [15]: 80 µM
- MIC (K. pneum. clin. isolate) [16]: 2 to 4 µM
- HC10 ([17]; concentration causing 10% hemolysis, 0.5% RBC in PBS, 37 °C, absorbance 450 nm, 0.2% Triton = 100%, triplicate): 3 µM
- HC20 ([17]; concentration causing 20% hemolysis, 0.5% RBC in PBS, 37 °C, absorbance 450 nm, triplicate): 25 µM
- HC50 * (extrapolated) ([17]; extrapolated, all concentrations tested lysed less than 50% of cells): 7000 * µM
- MIC (S. aureus clin. isolate) [18]: 4 µM (≈ 10.5 µg/mL)
- MIC (P. aerug. clin. isolate) [19]: 8 µM (≈ 21.1 µg/mL)
